# Results from ChEMBL document CHEMBL4406853 (Eur J Med Chem, 2019).
# Non-standard residues stand in square brackets, D forms with d. Residues, ends and D or L forms follow the SMILES beside them. ξ: configuration not given here. ξP = O=C(O)C1CCCN1
# What was measured:
# [1] = biological target: T1, Kappa-type opioid receptor (Homo sapiens, UniProt P41145); experiment: Inhibition of kappa opioid receptor (unknown origin) by [35S]-GTPgammaS binding assay; type: functional
# Mus musculus [2] = experiment: Antinociceptive activity in icv dosed mouse; type: functional
# [3] = biological target: T2, Delta-type opioid receptor (Homo sapiens, UniProt P41143); experiment: Inhibition of delta opioid receptor (unknown origin) by radioligand binding assay
# Homo sapiens [4] = species on record: Homo sapiens; experiment: Selectivity ratio of IC50 for mu opioid receptor (unknown origin) to IC50 for delta opioid receptor (unknown origin) by radioligand binding assay
# [5] = biological target: T2, Delta-type opioid receptor; experiment: Inhibition of full length delta opioid receptor (unknown origin) assessed as increase in beta arrestin 1 recruitment
# [6] = biological target: T2, Delta-type opioid receptor; experiment: Inhibition of full length delta opioid receptor (unknown origin) assessed as inhibition of forskolin-stimulated intracellular cAMP accumulation; type: functional, cell-based
# Homo sapiens [7] = species on record: Homo sapiens; experiment: Selectivity ratio of IC50 for mu opioid receptor (unknown origin) to IC50 for delta opioid receptor (unknown origin) by MVD assay
# [8] = biological target: T2, Delta-type opioid receptor; experiment: Inhibition of delta opioid receptor (unknown origin) by MVD assay
# [9] = biological target: T2, Delta-type opioid receptor; experiment: Inhibition of full length delta opioid receptor (unknown origin) assessed as increase in beta arrestin 2 recruitment
# Mu-type opioid receptor [10] = biological target: T3, Mu-type opioid receptor (Homo sapiens, UniProt P35372); experiment: Inhibition of mu opioid receptor (unknown origin)
# Mu-type opioid receptor [11] = biological target: T3, Mu-type opioid receptor; experiment: Inhibition of mu opioid receptor (unknown origin) expressed in HEK293 cells assessed as inhibition of forskolin-stimulated […] preincubated for 30 mins followed by forskolin-stimulation and measured after 60 mins; type: cell-based
# Mu-type opioid receptor [12] = biological target: T3, Mu-type opioid receptor; experiment: Inhibition of mu opioid receptor (unknown origin) expressed in HEK293 cells assessed as inhibition of forskolin-stimulated intracellular cAMP accumulation preincubated for 30 mins followed by forskolin-stimulation and measured after 60 mins; type: functional, cell-based
# [13] = biological target: T1, Kappa-type opioid receptor; experiment: Inhibition of kappa opioid receptor (unknown origin) in presence of DPDPE by [35S]-GTPgammaS binding assay; type: functional
# [14] = biological target: T2, Delta-type opioid receptor; experiment: Inhibition of delta opioid receptor (unknown origin) in presence of DAMGO by [35S]-GTPgammaS binding assay; type: functional
# [15] = biological target: T2, Delta-type opioid receptor; experiment: Inhibition of delta opioid receptor (unknown origin) in presence of DPDPE by [35S]-GTPgammaS binding assay relative to control; type: functional
# [16] = biological target: T1, Kappa-type opioid receptor; experiment: Inhibition of kappa opioid receptor (unknown origin) in presence of DAMGO by [35S]-GTPgammaS binding assay relative to control; type: functional
# Mu-type opioid receptor [17] = biological target: T3, Mu-type opioid receptor; experiment: Inhibition of mu opioid receptor (unknown origin) in presence of DPDPE by [35S]-GTPgammaS binding assay relative to control; type: functional
# Mu-type opioid receptor [18] = biological target: T3, Mu-type opioid receptor; experiment: Inhibition of mu opioid receptor (unknown origin) in presence of DPDPE by [35S]-GTPgammaS binding assay; type: functional
# [19] = biological target: T2, Delta-type opioid receptor; experiment: Inhibition of delta opioid receptor (unknown origin) in presence of DAMGO by [35S]-GTPgammaS binding assay relative to control; type: functional
# [20] = biological target: T2, Delta-type opioid receptor; experiment: Inhibition of delta opioid receptor (unknown origin) in presence of DPDPE by [35S]-GTPgammaS binding assay; type: functional
# Mu-type opioid receptor [21] = biological target: T3, Mu-type opioid receptor; experiment: Inhibition of mu opioid receptor (unknown origin) in presence of DAMGO by [35S]-GTPgammaS binding assay; type: functional
# [22] = biological target: T1, Kappa-type opioid receptor; experiment: Inhibition of kappa opioid receptor (unknown origin) in presence of DAMGO by [35S]-GTPgammaS binding assay; type: functional
# [23] = biological target: T1, Kappa-type opioid receptor; experiment: Inhibition of kappa opioid receptor (unknown origin) in presence of DPDPE by [35S]-GTPgammaS binding assay relative to control; type: functional
# [24] = biological target: T2, Delta-type opioid receptor; experiment: Inhibition of delta opioid receptor (unknown origin) expressed in human […] cells assessed as increase in beta arrestin recruitment; type: functional, cell-based
# [25] = biological target: T2, Delta-type opioid receptor; experiment: Inhibition of delta opioid receptor (unknown origin) expressed in human […] cells by [35S]-GTPgammaS binding assay; type: functional, cell-based
# Mu-type opioid receptor [26] = biological target: T3, Mu-type opioid receptor; experiment: Inhibition of mu opioid receptor (unknown origin) expressed in human […] cells by [35S]-GTPgammaS binding assay; type: functional, cell-based
# Mu-type opioid receptor [27] = biological target: T3, Mu-type opioid receptor; experiment: Inhibition of mu opioid receptor (unknown origin) assessed as increase in beta arrestin recruitment relative to control; type: functional
# [28] = biological target: T2, Delta-type opioid receptor; experiment: Inhibition of delta opioid receptor (unknown origin) assessed as increase in beta arrestin recruitment relative to control; type: functional
# Mu-type opioid receptor [29] = biological target: T3, Mu-type opioid receptor; experiment: Inhibition of mu opioid receptor (unknown origin) expressed in human […] cells by [35S]-GTPgammaS binding assay relative to control; type: functional, cell-based
# Mu-type opioid receptor [30] = biological target: T3, Mu-type opioid receptor; experiment: Inhibition of mu opioid receptor (unknown origin) expressed in human […] cells assessed as increase in beta arrestin recruitment; type: functional, cell-based
# [31] = biological target: T2, Delta-type opioid receptor; experiment: Inhibition of delta opioid receptor (unknown origin) expressed in human […] cells by [35S]-GTPgammaS binding assay relative to control; type: functional, cell-based
# Mu-type opioid receptor [32] = biological target: T3, Mu-type opioid receptor; experiment: Displacement of [3H]DAMGO from mu opioid receptor (unknown origin) expressed in HEK293 cells after 1 hr by liquid scintillation counting; type: cell-based
# Mus musculus [33] = experiment: Antinociceptive activity in icv dosed Kunming mouse; type: functional; conditions: central
# Mus musculus [34] = experiment: Antinociceptive activity in iv dosed Kunming mouse; type: functional
# [35] = biological target: T1, Kappa-type opioid receptor; experiment: Binding affinity to kappa opioid receptor (unknown origin)
# [36] = biological target: T1, Kappa-type opioid receptor; experiment: Inhibition of kappa opioid receptor (unknown origin) relative to control
# [37] = biological target: T1, Kappa-type opioid receptor; experiment: Inhibition of kappa opioid receptor (unknown origin)
# MAP kinase p38 = MAP kinase p38 (Homo sapiens, UniProt O15264+Q15759+Q16539+P53778); experiment: Inhibition of p38 phosphorylation (unknown origin); type: protein assay
# [38] = biological target: Mitogen-activated protein kinase 1 (Homo sapiens, UniProt P28482); experiment: Inhibition of ERK2 phosphorylation (unknown origin)
# [39] = biological target: Mitogen-activated protein kinase 3 (Homo sapiens, UniProt P27361); experiment: Inhibition of ERK1 phosphorylation (unknown origin)
# Mitogen-activated protein kinase 3, sequence (P27361 whole entry): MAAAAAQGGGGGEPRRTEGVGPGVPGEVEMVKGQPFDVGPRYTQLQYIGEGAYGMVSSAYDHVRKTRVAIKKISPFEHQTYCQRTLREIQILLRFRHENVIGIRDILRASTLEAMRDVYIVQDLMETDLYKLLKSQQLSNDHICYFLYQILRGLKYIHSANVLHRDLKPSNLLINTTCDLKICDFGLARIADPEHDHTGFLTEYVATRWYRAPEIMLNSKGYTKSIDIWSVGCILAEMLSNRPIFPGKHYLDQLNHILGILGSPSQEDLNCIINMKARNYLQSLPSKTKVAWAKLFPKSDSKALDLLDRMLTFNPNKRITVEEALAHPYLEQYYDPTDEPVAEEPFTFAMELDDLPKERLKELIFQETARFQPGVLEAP
# T3 sequence (P35372 whole entry): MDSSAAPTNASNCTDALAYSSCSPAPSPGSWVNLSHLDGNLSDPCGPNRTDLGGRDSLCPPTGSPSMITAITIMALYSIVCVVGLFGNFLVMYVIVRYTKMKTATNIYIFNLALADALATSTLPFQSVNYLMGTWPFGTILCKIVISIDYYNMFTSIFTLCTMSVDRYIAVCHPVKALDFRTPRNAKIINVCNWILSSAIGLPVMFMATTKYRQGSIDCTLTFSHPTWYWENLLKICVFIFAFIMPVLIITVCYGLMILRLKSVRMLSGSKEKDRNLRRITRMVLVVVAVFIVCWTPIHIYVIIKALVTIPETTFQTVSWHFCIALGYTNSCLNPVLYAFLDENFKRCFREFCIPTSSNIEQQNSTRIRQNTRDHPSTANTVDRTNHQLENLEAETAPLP
# T1 sequence (P41145 whole entry): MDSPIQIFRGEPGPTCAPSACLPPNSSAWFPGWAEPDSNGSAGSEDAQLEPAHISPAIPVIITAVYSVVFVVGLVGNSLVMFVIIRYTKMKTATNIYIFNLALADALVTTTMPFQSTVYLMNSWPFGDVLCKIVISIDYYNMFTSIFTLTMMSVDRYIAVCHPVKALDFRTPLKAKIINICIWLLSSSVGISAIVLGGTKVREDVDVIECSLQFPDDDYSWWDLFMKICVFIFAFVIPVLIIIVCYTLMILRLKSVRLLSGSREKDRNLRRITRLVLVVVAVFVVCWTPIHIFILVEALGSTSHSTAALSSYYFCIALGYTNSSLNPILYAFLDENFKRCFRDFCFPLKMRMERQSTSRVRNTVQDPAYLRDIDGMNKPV
# T2 sequence (P41143 whole entry): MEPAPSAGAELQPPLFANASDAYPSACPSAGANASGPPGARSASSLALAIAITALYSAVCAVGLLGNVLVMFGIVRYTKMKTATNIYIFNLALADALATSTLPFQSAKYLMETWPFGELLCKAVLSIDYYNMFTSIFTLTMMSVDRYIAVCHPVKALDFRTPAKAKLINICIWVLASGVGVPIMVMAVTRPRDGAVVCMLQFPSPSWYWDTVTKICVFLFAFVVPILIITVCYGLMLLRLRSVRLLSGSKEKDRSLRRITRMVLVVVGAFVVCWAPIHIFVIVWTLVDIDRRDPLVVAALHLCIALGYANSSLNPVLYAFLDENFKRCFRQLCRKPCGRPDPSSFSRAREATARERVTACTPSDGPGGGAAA
# Mitogen-activated protein kinase 1, sequence (P28482 whole entry): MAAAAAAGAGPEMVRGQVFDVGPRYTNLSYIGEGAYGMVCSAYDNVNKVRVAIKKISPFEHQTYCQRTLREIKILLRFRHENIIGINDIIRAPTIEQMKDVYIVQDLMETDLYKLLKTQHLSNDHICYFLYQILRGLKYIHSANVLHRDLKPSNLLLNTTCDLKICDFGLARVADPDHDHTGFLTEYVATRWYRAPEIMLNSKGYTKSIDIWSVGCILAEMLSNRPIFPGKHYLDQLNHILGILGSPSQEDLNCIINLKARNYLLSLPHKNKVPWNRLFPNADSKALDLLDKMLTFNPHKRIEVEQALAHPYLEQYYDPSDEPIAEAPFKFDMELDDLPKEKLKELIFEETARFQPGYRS
smiles,measurement,setting,value
Oc1cccc(CCN(CCc2ccccc2)CC2CC2)c1,EC50,[1],0.0367 µM
same,ED50,Mus musculus [2],6.02 nmol
CC(C)C[C@H](NC(=O)[C@H](CC(=O)O)NC(=O)[C@H](CC(C)C)NC(=O)C1CCCN1C(=O)[C@@H](N)Cc1ccc(O)cc1)C(=O)O (some centres not stated) (H-Y[ξP]LDL-OH),IC50,[3],2 µM
same,Ratio IC50,Homo sapiens [4],500
same,EC50,[5],79.4 µM
same,IC50,[6],6.31 µM
same,Ratio IC50,Homo sapiens [7],500
same,IC50,[8],51 µM
same,EC50,[9],79.4 µM
same,IC50,Mu-type opioid receptor [10],1090 µM
C[C@@H](Cc1ccsc1)NC(=O)NC[C@H](Cc1ccc2ccccc2c1)N(C)C,EC50,Mu-type opioid receptor [11],0.0524 to 0.0911 µM
same,EC50,Mu-type opioid receptor [12],0.0524 to 0.0911 µM
CC[C@@H]1CN2CC[C@]3(Nc4cccc(-c5ccccc5)c4C3=O)[C@@H]2C[C@@H]1/C(=C\OC)C(=O)OC,EC50,[13],0.0014 µM
same,EC50,[14],0.0014 µM
same,Emax,[15],123%
same,Emax,[16],123%
same,Emax,Mu-type opioid receptor [17],123%
same,EC50,Mu-type opioid receptor [18],0.0014 µM
same,Emax,[19],123%
same,EC50,[20],0.0014 µM
same,EC50,Mu-type opioid receptor [21],0.0014 µM
same,EC50,[22],0.0014 µM
same,Emax,[23],123%
CN(C)[C@H](CNC(=O)NCCc1ccsc1)Cc1cccc2ccccc12,EC50,Mu-type opioid receptor [11],0.203 µM
same,EC50,Mu-type opioid receptor [12],0.203 µM
CCOC(=O)C1(CCc2ccccc2)CCN(Cc2ccc(NC(C)=O)cc2)CC1,EC50,[24],8.3 µM
same,EC50,[25],0.054 µM
same,EC50,Mu-type opioid receptor [26],0.054 µM
same,Emax,Mu-type opioid receptor [27],1200%
same,Emax,[28],1200%
same,Emax,Mu-type opioid receptor [29],168%
same,EC50,Mu-type opioid receptor [30],8.3 µM
same,Emax,[31],168%
CN(C)[C@H](CNC(=O)NCCc1cccs1)Cc1cccc2ccccc12,EC50,Mu-type opioid receptor [11],0.0524 to 0.0911 µM
same,EC50,Mu-type opioid receptor [12],0.0524 to 0.0911 µM
C=C(C(N)=O)C(NC(=O)[C@H](Cc1c[nH]c2ccccc12)NC(=O)[C@@H](C)N(C)C(=O)C(N)Cc1c(C)cc(O)cc1C)c1ccco1 (some centres not stated),EC50,Mu-type opioid receptor [32],1.77 to 5.15 pM
same,Ki,Mu-type opioid receptor [32],10.9 to 51.1 pM
same,ED50,Mus musculus [33],0.0152 µmol/kg
same,ED50,Mus musculus [34],0.000382 µmol/kg
COC(=O)[C@@H]1C[C@H](OC(=O)Cl)C(=O)[C@H]2[C@@]1(C)CC[C@H]1C(=O)O[C@H](c3ccoc3)C[C@]21C,Kd,[35],0.0021 µM
same,Emax,[36],85%
same,EC50,[37],0.00019 µM
CN(C(=O)/C=C/c1ccoc1)[C@@H]1CC[C@@]2(O)[C@H]3Cc4ccc(O)c5c4[C@@]2(CCN3CC2CC2)[C@H]1O5 [NALFURAFINE],EC50,MAP kinase p38,0.0052 µM
same,EC50,[38],0.00055 µM
same,EC50,[39],0.00055 µM
C=C(C(N)=O)C(NC(=O)[C@H](Cc1ccccc1)NC(=O)[C@@H](C)N(C)C(=O)[C@@H](N)Cc1ccc(O)cc1)c1ccccc1 (some centres not stated),EC50,Mu-type opioid receptor [32],4000 pM
C=C(C(N)=O)C(NC(=O)[C@H](Cc1ccccc1)NC(=O)[C@@H](C)N(C)C(=O)C(N)Cc1c(C)cc(O)cc1C)c1ccco1 (some centres not stated),EC50,Mu-type opioid receptor [32],1.77 to 5.15 pM
same,Ki,Mu-type opioid receptor [32],10.9 to 51.1 pM
same,ED50,Mus musculus [33],0.0226 µmol/kg
same,ED50,Mus musculus [34],0.000489 µmol/kg
CC[C@@H]1CN2CC[C@]3(Nc4cccc(OC)c4C3=O)[C@@H]2C[C@@H]1/C(=C\OC)C(=O)OC,EC50,[13],0.0017 µM
same,IC50,[13],0.132 µM
same,EC50,[14],0.0017 µM
same,IC50,[14],0.0017 µM
same,Emax,[15],82%
same,Emax,[16],82%
same,Emax,Mu-type opioid receptor [17],82%
same,EC50,Mu-type opioid receptor [18],0.0017 µM
same,IC50,Mu-type opioid receptor [18],0.000282 µM
same,Emax,[19],82%
same,EC50,[20],0.0017 µM
same,IC50,[20],0.00126 µM
same,EC50,Mu-type opioid receptor [21],0.0017 µM
same,IC50,Mu-type opioid receptor [21],0.00661 µM
same,EC50,[22],0.0017 µM
same,IC50,[22],0.132 µM
same,Emax,[23],82%
